Assay results reported in ChEMBL document CHEMBL3396966, “In vitro studies of antimicrobial activity of Gly-His-Lys conjugates as potential and promising candidates for therapeutics in skin and tissue infections” (2015).
≈ marks a conversion by molar mass, not a printed value. Calls of active or inactive are those of the source. No cut-off for these calls is given here. Non-standard residues stand in square brackets, D forms with d. Residues, ends and D or L forms follow the SMILES beside them. ξ: configuration not given here. *: point of attachment. Stearoyl = CCCCCCCCCCCCCCCCCC(=O)*; Palmitoyl = CCCCCCCCCCCCCCCC(=O)*; Lauroyl = CCCCCCCCCCCC(=O)*; ξHyp = O=C(O)C1CC(O)CN1

Legend:
[1] = test system: Escherichia coli; test: Antimicrobial activity against Escherichia coli after 16 to 20 hrs by broth micro-dilution method; assay type: functional, organism-based
[2] = test system: Pseudomonas aeruginosa; test: Bactericidal activity against Pseudomonas aeruginosa PCM 2562 (ATCC9027) after 18 hrs by broth micro-dilution method; assay type: functional, organism-based
[3] = test system: Pseudomonas aeruginosa; test: Bactericidal activity against Pseudomonas aeruginosa PCM 2562 (ATCC9027) after 16 to 20 hrs by broth micro-dilution method; assay type: functional, organism-based
[4] = test system: Pseudomonas aeruginosa; test: Bactericidal activity against Pseudomonas aeruginosa PCM 2562 (ATCC9027) after 4 hrs by broth micro-dilution method; assay type: functional, organism-based
[5] = test system: Pseudomonas aeruginosa; test: Bacteriostatic activity against Pseudomonas aeruginosa PCM 2562 (ATCC9027) after 16 to 20 hrs by broth micro-dilution method; assay type: functional, organism-based
[6] = test system: Escherichia coli; test: Bactericidal activity against Escherichia coli up to 18 hrs by time-kill assay; assay type: functional, organism-based
[7] = test system: Staphylococcus aureus; test: Bactericidal activity against Staphylococcus aureus after 16 to 20 hrs by broth micro-dilution method; assay type: functional, organism-based
[8] = test system: Staphylococcus aureus; test: Bacteriostatic activity against Staphylococcus aureus after 16 to 20 hrs by broth micro-dilution method; assay type: functional, organism-based
[9] = test system: Staphylococcus aureus; test: Bactericidal activity against Staphylococcus aureus at 8 times MIC after 18 hrs by time-kill assay; assay type: functional, organism-based
[10] = test system: Staphylococcus aureus; test: Bactericidal activity against Staphylococcus aureus at 4 times MIC up to 18 hrs by time-kill assay
[11] = test system: Staphylococcus aureus; test: Bactericidal activity against Staphylococcus aureus up to 4 times MIC up to 18 hrs by time-kill assay; assay type: functional, organism-based
[12] = test system: Candida albicans; test: Fungicidal activity against Candida albicans at 4 to 8 times MIC after 4 hrs by time-kill assay; assay type: functional, organism-based
[13] = test system: Candida albicans; test: Fungicidal activity against Candida albicans at 8 times MIC after 4 hrs by time-kill assay; assay type: functional, organism-based
[14] = test system: Candida albicans; test: Fungicidal activity against Candida albicans at 250 ug/ml by time-kill assay; assay type: functional, organism-based
[15] = test system: Staphylococcus aureus; test: Antimicrobial activity against Staphylococcus aureus after 16 to 20 hrs by broth micro-dilution method; assay type: functional, organism-based
[16] = test system: Staphylococcus aureus; test: Bactericidal activity against Staphylococcus aureus at 0.5 to 1 times MIC up to 18 hrs by time-kill assay; assay type: functional, organism-based
[17] = test system: Staphylococcus aureus; test: Bactericidal activity against Staphylococcus aureus at 8 times MIC up to 18 hrs by time-kill assay; assay type: functional, organism-based
[18] = test system: Candida albicans; test: Fungicidal activity against Candida albicans at MIC by time-kill assay; assay type: functional, organism-based
[19] = test system: Pseudomonas aeruginosa; test: Bactericidal activity against Pseudomonas aeruginosa PCM 2562 (ATCC9027) at 4 times MIC up to 18 hrs by broth micro-dilution method; assay type: functional, organism-based
[20] = test system: Staphylococcus aureus; test: Antimicrobial activity against Staphylococcus aureus PCM 2054 (ATCC 25923) after 16 to 20 hrs by broth micro-dilution method; assay type: functional
[21] = test system: Staphylococcus aureus; test: Antimicrobial activity against Staphylococcus aureus PCM 2602 (ATCC 6538) after 16 to 20 hrs by broth micro-dilution method; assay type: functional
[22] = test system: Staphylococcus aureus; test: Bactericidal activity against Staphylococcus aureus at 4 times MIC up to 18 hrs by time-kill assay; assay type: functional, organism-based
[23] = test system: Escherichia coli; test: Antimicrobial activity against Escherichia coli DSM11250 (PCM2560, NTCC 10538) after 16 to 20 hrs by broth micro-dilution method; assay type: functional
[24] = test system: Staphylococcus aureus; test: Bactericidal activity against Staphylococcus aureus at 6 times MIC up to 18 hrs by time-kill assay; assay type: functional, organism-based
[25] = test system: Escherichia coli; test: Antimicrobial activity against Escherichia coli PCM 2561 (ATCC 8739, DSM 1576) after 16 to 20 hrs by broth micro-dilution method; assay type: functional
[26] = test system: Candida albicans; test: Fungicidal activity against Candida albicans at 2 times MIC by time-kill assay; assay type: functional, organism-based
[27] = test system: Pseudomonas aeruginosa; test: Antimicrobial activity against Pseudomonas aeruginosa PCM 2562 (ATCC9027) after 16 to 20 hrs by broth micro-dilution method; assay type: functional
[28] = test system: Staphylococcus aureus; test: Bactericidal activity against Staphylococcus aureus at 100 ug/ml up to 18 hrs by time-kill assay; assay type: functional, organism-based
[29] = test system: Staphylococcus aureus; test: Bactericidal activity against Staphylococcus aureus at 0.5 to 1 time MIC up to 18 hrs by time-kill assay; assay type: functional, organism-based
[30] = test system: Staphylococcus aureus; test: Bactericidal activity against Staphylococcus aureus at 1 to 4 times MIC up to 18 hrs by time-kill assay; assay type: functional, organism-based
[31] = test system: Candida albicans; test: Fungicidal activity against Candida albicans at 2 to 4 times MIC by time-kill assay; assay type: functional, organism-based
[32] = test system: Candida albicans; test: Antifungal activity against Candida albicans after 16 to 20 hrs by broth micro-dilution method; assay type: functional, organism-based
[33] = test system: Candida albicans; test: Fungicidal activity against Candida albicans by time-kill assay; assay type: functional, organism-based
[34] = Staphylococcus aureus, PCM 2054 (ATCC 25923)
[35] = Staphylococcus aureus, PCM 2602 (ATCC 6538)
[36] = Escherichia coli, DSM11250 (PCM2560, NTCC 10538)
[37] = Escherichia coli, PCM 2561 (ATCC 8739, DSM 1576)
[38] = Pseudomonas aeruginosa, PCM 2562 (ATCC9027)

## CC(=O)NCC(=O)N1CC(O)CC1C(=O)N[C@H](CCCCN)C(=O)O (some centres undefined)
[1]
  Activity: Active

## CCCCCCCCCCCC(=O)NCC(=O)N1CC(O)CC1C(=O)N[C@@H](CCCCN)C(=O)O (some centres undefined)
[2]
  Activity: Active
[3]
  Activity: Active
[4]
  Activity: Active
[5]
  Activity: Active
[6]
  Activity: Active
[7]
  Activity: Active
[8]
  Activity: Active
[9]
  Activity: Active
[1]
  Activity: Active

## CCCCCCCCCCCC(=O)NCC(=O)N1CC(O)CC1C(=O)N[C@H](CCCCN)C(=O)O (some centres undefined)
[10]
  Activity: Active
[6]
  Activity: Active
[11]
  Activity: Active
[1]
  Activity: Active

## CCCCCCCCCCCCCCCCCC(=O)NCC(=O)N1CC(O)CC1C(=O)N[C@@H](CCCCN)C(=O)O (some centres undefined)
[12]
  Activity: Active
[6]
  Activity: Active
[11]
  Activity: Active
[13]
  Activity: Active
[14]
  Activity: Active

## CCCCCCCCCCCCCCCCCC(=O)NCC(=O)N1CC(O)CC1C(=O)N[C@H](CCCCN)C(=O)O (some centres undefined)
[6]
  Activity: Active

## CC(=O)NCC(=O)NCC(=O)N1CC(O)CC1C(=O)N[C@@H](CCCCN)C(=O)O (some centres undefined) (Ac-GG[ξHyp]K-OH)
[6]
  Activity: Active

## CSCC[C@H](NC(=O)C1CC(O)CN1C(=O)CN)C(=O)N[C@@H](CCCCN)C(=O)O (some centres undefined) (H-G[ξHyp]MK-OH)
[6]
  Activity: Active
[15]
  Activity: Active
[1]
  Activity: inactive

## NCCCC[C@H](NC(=O)[C@H](Cc1cnc[nH]1)NC(=O)CN)C(=O)O (H-Gly-His-Lys-OH)
[5]
  Activity: Active
[8]
  Activity: Active
[15]
  Activity: Active
[1]
  Activity: Active

## CSCC[C@H](NC(=O)CN)C(=O)N[C@@H](CCCCN)C(=O)O (H-Gly-Met-Lys-OH)
[6]
  Activity: Active
[1]
  Activity: inactive

## NCCCC[C@H](NC(=O)C1CC(O)CN1C(=O)CN)C(=O)O (some centres undefined) (H-Gly-[ξHyp]-Lys-OH)
[5]
  Activity: Active
[8]
  Activity: Active
[15]
  Activity: Active
[1]
  Activity: Active

## CCCCCCCCCCCC(=O)NCC(=O)NCC(=O)N1CC(O)CC1C(=O)N[C@@H](CCCCN)C(=O)O (some centres undefined) (Lauroyl-GG[ξHyp]K-OH)
[16]
  Activity: Active
[6]
  Activity: Active

## CCCCCCCCCCCC(=O)NCC(=O)N1CC(O)CC1C(=O)N[C@@H](CCSC)C(=O)N[C@@H](CCCCN)C(=O)O (some centres undefined) (Lauroyl-G[ξHyp]MK-OH)
[17]
  Activity: Active

## CCCCCCCCCCCCCCCC(=O)NCC(=O)N1CC(O)CC1C(=O)N[C@@H](CCCCN)C(N)=O (some centres undefined) (Palmitoyl-Gly-[ξHyp]-Lys-NH2)
[18]
  Activity: Active
[19]
  Activity: Active
[20]
  MBC50: 93.7 µg/mL (≈ 169 µM)
  MBC90: 125 µg/mL (≈ 226 µM)
[20]; [34]
  MIC50: 31.3 µg/mL (≈ 56.5 µM)
  MIC90: 62.5 µg/mL (≈ 113 µM)
[21]
  MBC50: 93.7 µg/mL (≈ 169 µM)
  MBC90: 125 µg/mL (≈ 226 µM)
[21]; [35]
  MIC50: 31.3 µg/mL (≈ 56.5 µM)
  MIC90: 31.3 µg/mL (≈ 56.5 µM)
[22]
  Activity: Active
[23]; [36]
  MIC50: 31.3 µg/mL (≈ 56.5 µM)
  MIC90: 62.5 µg/mL (≈ 113 µM)
[24]
  Activity: Active
[25]; [37]
  MIC50: 62.5 µg/mL (≈ 113 µM)
  MIC90: 125 µg/mL (≈ 226 µM)
[26]
  Activity: Active
[27]
  MBC50: 1500 µg/mL (≈ 2710 µM)
  MBC90: 2000 µg/mL (≈ 3610 µM)
[27]; [38]
  MIC50: 375 µg/mL (≈ 677 µM)
  MIC90: 500 µg/mL (≈ 903 µM)
[28]
  Activity: Active

## CCCCCCCCCCCCCCCC(=O)NCC(=O)N1CC(O)CC1C(=O)N[C@@H](CCCCN)C(=O)O (some centres undefined) (Palmitoyl-Gly-[ξHyp]-Lys-OH)
[29]
  Activity: Active
[2]
  Activity: Active
[30]
  Activity: Active
[4]
  Activity: Active
[6]
  Activity: Active
[22]
  Activity: Active
[11]
  Activity: Active

## CCCCCCCCCCCCCCCCCC(=O)NCC(=O)NCC(=O)N1CC(O)CC1C(=O)N[C@@H](CCCCN)C(=O)O (some centres undefined) (Stearoyl-GG[ξHyp]K-OH)
[31]
  Activity: Active
[26]
  Activity: Active

## NC[C@H]1O[C@H](O[C@H]2[C@H](O)[C@@H](O[C@H]3O[C@H](CO)[C@@H](O)[C@H](N)[C@H]3O)[C@H](N)C[C@@H]2N)[C@H](O)[C@@H](O)[C@@H]1O [KANAMYCIN]
[20]
  MBC50: 3.9 µg/mL (≈ 8.05 µM)
  MBC90: 7.8 µg/mL (≈ 16.1 µM)
[20]; [34]
  MBC: 11.7 µg/mL (≈ 24.1 µM)
  MIC: 2.9 µg/mL (≈ 5.99 µM)
  MIC50: 2.9 µg/mL (≈ 5.99 µM)
  MIC90: 5.8 µg/mL (≈ 12 µM)
[21]
  MBC50: 3.9 µg/mL (≈ 8.05 µM)
  MBC90: 7.8 µg/mL (≈ 16.1 µM)
[21]; [35]
  MBC: 11.7 µg/mL (≈ 24.1 µM)
  MIC: 2.9 µg/mL (≈ 5.99 µM)
  MIC50: 2.9 µg/mL (≈ 5.99 µM)
  MIC90: 5.8 µg/mL (≈ 12 µM)
[23]
  MBC50: 15.6 µg/mL (≈ 32.2 µM)
  MBC90: 31.3 µg/mL (≈ 64.6 µM)
[23]; [36]
  MBC: 7.8 µg/mL (≈ 16.1 µM)
  MIC: 3.9 µg/mL (≈ 8.05 µM)
  MIC50: 7.8 µg/mL (≈ 16.1 µM)
  MIC90: 15.6 µg/mL (≈ 32.2 µM)
[25]
  MBC50: 15.6 µg/mL (≈ 32.2 µM)
  MBC90: 31.3 µg/mL (≈ 64.6 µM)
[25]; [37]
  MBC: 7.8 µg/mL (≈ 16.1 µM)
  MIC: 3.9 µg/mL (≈ 8.05 µM)
  MIC50: 7.8 µg/mL (≈ 16.1 µM)
  MIC90: 15.6 µg/mL (≈ 32.2 µM)

## CN(C)[C@@H]1C(O)=C(C(N)=O)C(=O)[C@@]2(O)C(O)=C3C(=O)c4c(O)cccc4[C@@](C)(O)[C@H]3C[C@@H]12 [TETRACYCLINE]
[27]
  MBC50: 31.3 µg/mL (≈ 70.4 µM)
  MBC90: 62.5 µg/mL (≈ 141 µM)
[27]; [38]
  MBC: 31.3 µg/mL (≈ 70.4 µM)
  MIC: 3.9 µg/mL (≈ 8.78 µM)
  MIC50: 3.91 µg/mL (≈ 8.8 µM)
  MIC90: 7.81 µg/mL (≈ 17.6 µM)

## NYSTATIN
[32]
  MFC: 7.8 µg/mL
  MFC50: 1.9 µg/mL
  MFC90: 7.8 µg/mL
  MIC50: 1.9 µg/mL
  MIC90: 3.9 µg/mL
[33]
  Activity: Active
